From the NIST ThermoML archive (doi:10.1021/je0501484)

Assay: mn = molality of the nth substance listed, in mol/kg
Settings: 101 kPa, Liquid

CCCCCC(=O)[O-].[Na+] [sodium hexanoate] + O
Settings	mass density, m1 = 0.5 [kg/m3]	mass density, m1 = 1 [kg/m3]	mass density, m1 = 1.5 [kg/m3]	mass density, m1 = 2.177 [kg/m3]	viscosity, m1 = 0.5 [mPa·s]	viscosity, m1 = 1 [mPa·s]	viscosity, m1 = 1.5 [mPa·s]	viscosity, m1 = 2.177 [mPa·s]
298.15 K	1014.4	1029.41	1041.88	1054.22	1.212	1.607	2.102	3.187
308.15 K	1010.74	1024.96	1036.7	1048.72	0.956	1.24	1.601	2.402
